Test results taken from patent publication US9878054B2, “Polypeptide and lipophilic moiety conjugate compositions, formulations, and uses related thereto” (Tufts Medical Center, Inc., priority 2012, dated 2018).
Where a SMILES comes first, the peptide text is derived from it. The star is where a group is joined. Palmitoyl = CCCCCCCCCCCCCCCC(=O)*

Assays:
[1] = Pharmacokinetics of PZ-128 in baboon plasma (LC/MS/MS); type: in vivo
Experimental: A-C, Male baboons (10-12 kg) were administered 1, 3 or 6 mg/kg PZ-128, or 5% dextrose USP vehicle by iv infusion and blood collected into 100 μg/ml PPACK anticoagulant at 0, 1, 2, 6, or 24 h time points. Light transmission platelet aggregometry was performed with platelet rich plasma with the indicated agonists (SFLLRN for PAR1, AYPGKF for PAR4 and ADP for P2Y12 and P2Y1). Data are reported as mean±SD (n=3-7) relative to time 0 controls (0%) and were analyzed by repeated measures one-way ANOVA with Bonferroni post-test correction; *P<0.05, **P<0.01 relative to time 0. Global P values were >0.05 for 1 mg/kg, 0.004 for 3 mg/kg, <0.0001 for 6 mg/kg. D, Pharmacokinetics of 3 and 6 mg/kg 45-min iv infusions of PZ-128 in male baboons. Plasma PZ-128 levels were measured by LC/MS/MS at 9 sequential time points: baseline, 15 min, 30 min, 1 h, 2 h, 4 h, 8 h, 24 h and 48 h after the start of infusion. Open symbols indicated plasma concentrations that were under the measurement threshold (5 ng/ml).
The maximal plasma concentration of PZ-128 was 14 μmol/L at the 6 mg/kg dose and 5.6 μmol/L for the 3 mg/kg dose. […] The pharmacokinetic and anti-platelet pharmacodynamic properties of PZ-128 micelles indicate that this lipopeptide reaches maximal activity during and immediately after intravenous infusion and is completely eliminated by the next day.
Various doses of PZ-128 micelles were infused intravenously for 45 min to baboons. At sequential time points, whole blood was drawn into 3.2% citrate buffer and immediately centrifuged at 3000 rpm for 10 min. Platelet-poor plasma (PPP) samples were harvested and stored at −80° C. PZ-128 drug levels in PPP samples were determined was using an API 4000 LC/MS/MS system (Agilux Laboratories, Worcester, Mass.).

human platelets (ADP) = assay: Human platelet aggregation, ADP; type: cell-based; details: 20 μM ADP
Experimental: (§1) A, Depiction of the mechanism of action of the cell-penetrating PZ-128 pepducin compound targeting the third intracellular loop (red) of PAR1. B, The NMR structure of PZ-128 was determined by simulated annealing methods using 210 distance restraints and included restraints to the proximal 3 hydrocarbons of the lipid. […] D, PZ-128 inhibits PAR1-dependent platelet aggregation. Gel filtered human platelets were treated with various concentrations of PZ-128 and then challenged with the PAR1 agonist SFLLRN (2.5 μM), 20 μM ADP, 200 μM AYPGKF or 1 mg/ml Ristocetin. E, Human platelets were treated with 3 μM PZ-128, 3 μM RWJ-56110, or 5% dextrose vehicle before the addition of various concentrations of thrombin (n=3-5).
(§2) PZ-128 also markedly right-shifted thrombin-induced aggregation by 5-fold. By comparison, the small molecule RWJ-56110 which antagonizes PAR1 at the extracellular ligand-binding site gave a 2-fold right shift in the thrombin activation curve of human platelets.
(§3) Whole blood from healthy donors was collected into a 30 ml syringe containing sodium citrate (0.4% vol/vol final). Platelets were isolated from platelet rich plasma (PRP) using Sepharose 2B columns in modified PIPES buffer.

PAR1 = molecular target: T1, PAR1 (Homo sapiens, UniProt P25116); assay: Human platelet aggregation, PAR1 agonist SFLLRN; type: cell-based; details: gel filtered human platelets, SFLLRN 2.5 μM
T1 construct: Platelets were isolated from platelet rich plasma (PRP) using Sepharose 2B columns; endogenous in cells; host or cells: human platelets from healthy donors, gel-filtered
T1 sequence (P25116 22-425): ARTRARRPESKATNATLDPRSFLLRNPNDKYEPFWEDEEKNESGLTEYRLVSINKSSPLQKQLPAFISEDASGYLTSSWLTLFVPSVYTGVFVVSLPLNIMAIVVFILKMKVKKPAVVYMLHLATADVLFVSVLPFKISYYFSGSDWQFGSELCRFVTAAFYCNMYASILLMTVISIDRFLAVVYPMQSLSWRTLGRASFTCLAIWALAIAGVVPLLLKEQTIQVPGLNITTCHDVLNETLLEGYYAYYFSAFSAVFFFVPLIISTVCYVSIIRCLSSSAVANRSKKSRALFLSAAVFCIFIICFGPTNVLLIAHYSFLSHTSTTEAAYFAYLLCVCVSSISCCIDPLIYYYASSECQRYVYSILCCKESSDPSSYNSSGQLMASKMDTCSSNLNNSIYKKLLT
Experimental: as §1, §2, §3

[2] = system: human whole blood (red blood cell lysis); assay: Hemolysis of human whole blood; type: cell-based; details: up to 3.3 mg/mL in 5% dextrose, blood mixed 2:1; 40 min at 37° C.
Experimental: Fresh human whole blood (anticoagulated with 10 U heparin/mL) was mixed 2:1 with the various indicated dilutions of micelles of PZ-128 in 5% dextrose, incubated for 40 min at 37° C., and red blood cell lysis quantified by hemoglobin (Hb) release into the supernatant.
The PZ-128 micelle particles were solubilized in 5% dextrose/water at 10 mg/mL concentration and serially diluted with additional 5% dextrose/water to make stock solutions of 0.75, 1.5, 2.25, 3.0, 3.3 and 4.0 mg/mL PZ-128 in 5% dextrose water. Fresh human whole blood (anticoagulated with 10 U heparin/mL) was mixed 2:1 with the various dilutions of PZ-128 in 5% dextrose, incubated for 40 min at 37° C., and red blood cell lysis quantified by hemoglobin (Hb) release into the supernatant. […] The final pH of the PZ-128 micelles in 5% dextrose/water ranged from 6.75 to 7.13 at 1.25-10 mg/mL at room temperature.

- Plasma half life ([1]; 3 and 6 mg/kg iv infusion): 50 to 80 min
- Plasma level at late time points ([1]; 24-48 h, measurement threshold 5 ng/ml): not detectable
- Clearance from plasma ([1]; by 8 h): nearly completely cleared
- half-life ([1]; male, plasma, iv, 3 and 6 mg/kg iv infusion): 50 to 81 min
- Extent of inhibition of human platelet aggregation in response to SFLLRN (PAR1): completely inhibited
- IC50 (PAR1; read-out: IC50, inhibition of human platelet aggregation in response to PAR1 agonist SFLLRN): 0.5 µM
Compound: CCCCCCCCCCCCCCCC(=O)N[C@@H](CCCCN)C(=O)N[C@@H](CCCCN)C(=O)N[C@@H](CO)C(=O)N[C@@H](CCCNC(=N)N)C(=O)N[C@@H](C)C(=O)N[C@@H](CC(C)C)C(=O)N[C@@H](Cc1ccccc1)C(N)=O [PZ-128, palmitate-KKSRALF-NH2] (Palmitoyl-KKSRALF-NH2)
- Inhibitory activity against ADP aggregation (human platelets (ADP)): no inhibitory activity
- Hemolysis of human whole blood (Hb release) [2]: no significant hemolysis
